Here are results for one molecule from patent US9139523B2, “5-HT2B receptor antagonists” (Janssen Pharmaceutica, NV, priority 2010, dated 2015).

Where two headings read alike, the source gives them in different places.

For series [1], the system named is monocrotaline-induced pulmonary arterial hypertension. Description: Monocrotaline-induced pulmonary arterial hypertension in the rat. It counts as in vivo. The following applies: for MAP / PAAT / RV/(LV + S) / RVP: Day 21, mean ± SD. The method, then: (§1) Compound (−)-17 was tested in monocrotaline-induced pulmonary arterial hypertension in the rat (see e.g., Stenmark et al, 2009, Am J Physiol Lung Cell Mol Physiol 297, L1013-L1032). Measurements included: mean arterial blood pressure and right ventricular pressure in vivo, ratio of right ventricular weight to left ventricular weight plus septum as an index of right ventricular hypertrophy, pulmonary artery acceleration time, and histological assessement of muscularization of pulmonary arteries.
(§2) Monocrotaline was dissolved in 1 N HCl and then into distilled water, and pH was adjusted to 7.4 using NaOH. A single dose of 60 mg/kg monocrotaline was administered subcutaneously on day 0 to three groups of male Sprague Dawley rats. The test article Compound (−)-17 was dissolved in 20% hydroxypropyl-beta-cyclodextrin with NaOH, HCl and mannitol in pyrogen-free water and administered orally by gavage (10 ml/kg) once daily from day 1 for 21 days at 10 mg/kg and 50 mg/kg. […] Corresponding volumes of 20% hydroxypropyl-beta-cyclodextrin vehicle were administered orally according to the same protocol in a third group of animals.

Assay in series [2]: as above
It is filed as in vivo. To be noted: male, Sprague Dawley, in vivo, po, rat, 2 hours post-dosing at day 21, read-out: mean plasma concentration. As to the method:
as §1, §2

Series [3] is described as follows: Cardio-hemodynamic, cardio-electrophysiological, EEG and pulmonary effects in ventilated, anesthetized dogs. It counts as in vivo, dog. The following applies: Beagle, plasma, iv, dog, 5-min i.v. infusion. The method, then: The animals were anesthetized with a mixture of 0.015 mg/kg i.v. scopolamine and 0.075 mg/kg i.v. lofentanil, and relaxed with succinylcholine (5 mg/kg i.v.) followed by a continuous i.v. infusion of 1.5 mg/kg/h of etomidate and small additional doses of fentanyl (0.025 mg/kg i.v.) were given at 60 min intervals. The animals were ventilated and prepared for measurements of the surface ECG, aortic-, pulmonary- and left ventricular blood pressure, carotid blood flow, monophasic action potential, body temperature, blood gasses and EEG (see Van Deuren et al, J Pharmacol Toxicol Methods; 2009; 60: 11-23). Compound (−)-17 was dissolved in 20% hydroxypropyl-cyclodextrin with NaOH, HCl and mannitol in pyrogen-free water and administered intravenously (1 ml/kg) in increasing doses (0.16, 0.32, 0.63, 1.25, 2.5 and 5 mg/kg) over a period of 5 min at 30-min intervals. Plasma concentrations of Compound (−)-17 were measured before and at the end of each infusion. Corresponding volumes of vehicle were administered according to the same protocol in a second group of animals.

Setting [4] is: 10 mg/kg p.o. once daily 21 days.
Where [5] appears, read: 50 mg/kg p.o. once daily 21 days.
Setting [6] is: rat, 10 mg and 50 mg p.o. once daily, three weeks.

Consider `COc1cc(N)c(Cl)cc1C(=O)NC1CCN(CCCOc2ccc(F)cc2)CC1(F)F` (single isomer, unassigned) [Compound (−)-17, 4-amino-5-chloro-N-{3,3-difluoro-1-[3-(4-fluorophenoxy)-propyl]-piperidin-4-yl}-2-methoxybenzamide], for which, in series [1] (setting [4]), the MAP is 93.7 ± 14.11 mmHg, the PAAT amounted to 15.91 ± 2.76 ms, the “RV/(LV + S)” value was found to be 0.46 ± 0.08 and the RVP amounted to 43.18 ± 7.38 mmHg. In series [1] (setting [5]), the MAP turned out to be 97.58 ± 9.74 mmHg, the PAAT was 15.42 ± 2.62 ms, the “RV/(LV + S)” value is recorded as 0.41 ± 0.08 and the RVP stood at 42.85 ± 11.55 mmHg. Besides, the “toxicity of three-week treatment” value in series [1] (rat, 10 mg and 50 mg p.o. once daily) is recorded as “non-toxic”. In series [1] (setting [6]), the “effect on mean arterial blood pressure (MAP)” value is reported as “no effect”, the “effect on pulmonary artery acceleration time (PAAT)” value is “increased”, the “effect on right ventricular hypertrophy RV/(LV+S)” value is “reduced” and the “effect on right ventricular pressure (RVP)” value is given as “reduced”. For the same molecule, the “monocrotaline-induced thickening of wall of small pulmonary arteries” value in series [1] (rat, 10 mg p.o. three weeks (P<0.005)) was “reduced”. Also, the “monocrotaline-induced thickening of wall of small pulmonary arteries” value in series [1] (rat, 50 mg/kg p.o. three weeks (P=0.0539)) is “reduced”. The concentration at 2 h in series [2] (10 mg/kg, 10 mg p.o. once daily) was about 80 ng/mL. For the same molecule, the concentration at 2 h in series [2] (50 mg/kg, 50 mg p.o. once daily) was determined as 1000 ng/mL. Further, in series [3] (dose 1.25 mg/kg (increasing doses, 30-min intervals), read-out: Median plasma level (Cmax)), the Cmax is 5200 ng/mL. Moreover, the Cmax in series [3] (dose 2.5 mg/kg (increasing doses, 30-min intervals), read-out: Median plasma level (Cmax)) is 9550 ng/mL. The Cmax in series [3] (dose 5 mg/kg (increasing doses, 30-min intervals; total dose 9.86 mg/kg), read-out: Median plasma level (median Cmax)) is 20400 ng/mL.
